Key:
[1] = test system: dopaminergic neurons in rat primary mesencephalic neuron-glia cultures; assay: DA uptake / TH-IR count in neuron-glia cultures without toxin (spontaneous DA neuronal death, neurotrophic effect); format: cell-based; conditions: sodium butyrate, indicated concentrations, 7 days
Description: In Example 23, [^3H]DA uptake assay and immunohistochemical analysis for TH-IR neurons were used to assess the viability of DA neurons in rat primary mesencephalic neuron-glia cultures in which approximately 1% of the neurons are dopaminergic. [^3H]DA uptake assays were performed as described in Example 1.
Rat primary mesencephalic neuron-glia cultures were prepared from the ventral mesencephalic tissues of embryonic day 13-14 Fisher 344 rats. Dissociated cells were seeded at a density of 5×10^5/well to poly-D-lysine-precoated 24-well plates. Cells were maintained at 37° C. in a humidified atmosphere of 5% CO2 and 95% air, in minimal essential medium containing 10% fetal bovine serum (FBS), 10% horse serum, 1 gm/l glucose, 2 mM L-glutamine, 1 mM sodium pyruvate, 100 μM non-essential amino acids, 50 U/ml penicillin, and 50 μg/ml streptomycin. Unless otherwise indicated, seven-day-old cultures were used for treatment.
Seven days after seeding, each well was treated with indicated concentration of VPA or its vehicle. Seven days after treatment, the viability of dopaminergic neurons was assessed by [^3H]DA uptake assays. Quantified results are expressed as mean±SEM of percentage of vehicle-treated cultures from three experiments performed in duplicate. *, p<0.05 compared with the corresponding vehicle-treated control cultures.
Next, the rat primary mesencephalic neuron-glia cultures were treated with 0.6 mM VPA for various times to determine the treatment time-dependency. Rat primary mesencephalic neuron-glia cultures in a 24-well plate were treated with 0.6 mM VPA or its vehicle for indicated time 7 days after seeding. The viability of dopaminergic neurons was assessed by [^3H]DA uptake assays, shown in FIG. 37 or counting of TH-IR neurons, shown in FIG. 38. Quantified results are expressed as mean±SEM of percentage of vehicle-treated control cultures from three experiments performed in duplicate. *, p<0.05 compared with the corresponding vehicle-treated control cultures. […] VPA time-dependently induces survival-promoting effects against spontaneous DA neuronal death in rat primary mesencephalic neuron-glia cultures.
Rat primary mesencephalic neuron-glia cultures seeded in a 24-well culture plate at density of 5×10^5 per well were treated with indicated concentrations of sodium butyrate or its vehicle 7 days after seeding. The viability of dopaminergic neurons was assessed by DA uptake assays 7 days after sodium butyrate addition.
Mesencephalic neuron-glia cultures, prepared as described above, were pretreated with vehicle or 3-HM (1-5 μM) before the treatment of LPS (10 ng/ml). Seven days later, the degeneration of dopaminergic neurons was determined by the functional assay of [^3H]DA uptake and by the morphometric measurement of dopaminergic neurons following immunostaining with an anti-TH antibody. [^3H]DA and immunostaining are performed as described above.

[2] = test system: dopaminergic neurons in mesencephalic neuron-enriched cultures; assay: [3H]DA uptake in neuron-enriched cultures (direct, conditioned media, reconstituted); format: cell-based, rat; conditions: neuron-enriched cultures, 7 days; drug 0.6 mM or conditioned medium
Description: Mixed-glia cultures were first prepared from brains of 1-day-old Fisher 344 rat pups, as described previously (Liu, et al. 2001). Mechanically dissociated brain cells (5×10^7) were seeded onto 150 cm^2 culture flasks in Dulbecco's modified Eagle's medium containing 10% heat-inactivated FBS, 2 mM L-glutamine, 1 mM sodium pyruvate, 100 μM non-essential amino acids, 50 U/ml penicillin, and 50 μg/ml streptomycin. The cultures were maintained at 37° C. in a humidified atmosphere of 5% CO2 and 95% air, and medium was replenished 4 days after the initial seeding. Upon reaching confluence (usually 12-14 days later), microglia were detached from astroglia by shaking the flasks for 5 hours at 180 rpm. Astroglia were then detached with trypsin-EDTA and seeded in the same culture medium. After five or more consecutive passages, cells were seeded onto 24-well plates (10^5/well) for experiments. Immunocytochemical staining of the astroglia enriched cultures with either anti-GFAP or anti-OX-42 antibody indicated astroglial purity of greater than 98% and less than 2% of microglia contamination.
Conditioned medium derived from rat primary astroglial cultures treated with vehicle (ACM) or 0.6 mM VPA (ACM-VPA) were harvested after 12, 24 and 48 hours of incubation. Midbrain neuron-enriched cultures seeded in 24-well plates at a density of 5×10^5 cells/well were treated with vehicle, VPA, ACM or ACM-VPA for 7 days. Neurotrophic effect was quantified by [^3H]DA uptake assay.
Rat mesencephalic neuron-enriched cultures are prepared from dissociated ventral mesencephalic cells from embryonic day 13-14 Fisher 344 rats were seeded first at a density of 5×10^5/well to poly-D-lysine-precoated 24-well culture plates. […] Three days later, the culture medium was replaced with the maintenance medium. Routinely, the seven-day-old neuron-enriched cultures were used for treatment. […] Of the Neu-N immunoractive neurons, 2.7-3.9% was TH-IR neurons.
To explore whether astroglial cells are also the main target of sodium butyrate-induced neurotrophic effect, we prepared media conditioned by incubation of astroglial cultures in the absence or presence 0.6 mM sodium butyrate. Conditioned medium derived from rat primary astroglial cultures treated with vehicle (ACM) or 0.6 mM sodium butyrate (ACM-Sodium butyrate) were harvested after 48 hours of incubation. Midbrain neuron-enriched cultures seeded in 24-well plates at a density of 5×10^5 cells/well were treated with vehicle, sodium butyrate, ACM or ACM-Sodium butyrate for 7 days. Seven days after treatment, neurotrophic effect for dopaminergic neurons was assessed by [^3H]DA uptake assays.
Various concentrations of 3-HM (0.1-5 μM) or vehicle were added to the following different cell cultures: neuron-enriched cultures (A); reconstituted cultures by adding 10% and 20% (5×10^4/well and 1×10^5/well) of microglia to the neuron-enriched cultures (B); reconstituted cultures by adding 40% and 50% (2×10^5/well and 2.5×10^5/well) of astroglia to the neuron-enriched cultures (C). Cultures are prepared as described in Example 25. The [^3H]DA uptake measurements were performed […] after treatment. Results were expressed as a percentage of the vehicle-treated control cultures and were the mean±SE from five (A) and four (B,C) independent experiments in triplicate. *P<0.05 and **P, 0.001 compared with the vehicle-treated control cultures. #P<0.05 compared with the augmented cultures with 40% astroglia. N, neuron-enriched cultures; N+10% (20%) MG: 10% (20%) of microglia were added back to the neuron-enriched cultures; N+40% (50%) AS: 40% (50%) of astroglia were added back to the neuron-enriched cultures.
To confirm the possible role of astroglia in the neurotrophic effect of 3-HM, conditioned media from astroglia-enriched cultures (prepared as described above) treated with either 3-HM (1-5 μM) or vehicle for 24 hours were prepared. […]

[3] = test system: dopaminergic neurons in rat primary mesencephalic neuron-glia cultures; assay: [3H]DA uptake in LPS-treated mesencephalic neuron-glia cultures; format: cell-based; conditions: LPS 5 ng/ml, 7 days, LPS alone 40.1 ± 3.2; for DA uptake, LPS + Peptide 10^−13: peptide 10^−13, 30 min pretreatment; for DA uptake, LPS + Peptide 10^−14: peptide 10^−14, 30 min pretreatment; for DA uptake, LPS + Peptide 10^−15: peptide 10^−15, 30 min pretreatment
Description: Neuron-glia cultures were prepared from the ventral mesencephalic tissues of embryonic day 13-14 Fisher F344 rats or day 12-13 wild-type C57BL/6J (gp91phox^+/+) mice. Dissociated cells were seeded at 1×10^5/well and 5×10^5/well to poly-D-lysine-coated 96-well and 24-well plates, respectively. Cells were maintained at about 37° C. in a humidified atmosphere of 5% CO2 and 95% air, in minimal essential medium (MEM) containing 10% fetal bovine serum (FBS), 10% horse serum (HS), 1 gm/l glucose, 2 mM L-glutamine, 1 mM sodium pyruvate, 100 μM nonessential amino acids, 50 U/ml penicillin, and 50 μg/ml streptomycin. Seven-day-old cultures were used for treatment.
Dextromethorphan (obtained from Sigma-Aldrich (St. Louis, Mo.) as dextromethorphan hydrobromide) was freshly prepared as a stock solution (1 mM) in ddH2O and sterile-filtered right before use. For treatment of the cultures, the DM was serially diluted (10×) with fresh culture medium containing 2% of fetal bovine and horse serum. The neuron-glia cultures were pretreated with 10^−5-10^−17M DM 30 minutes prior to treatment with 10 ng/ml of LPS.
Seven days after treatment, the degeneration of dopaminergic neurons was assessed by [^3H]-dopamine (DA) uptake assays. The [^3H]-DA uptake assays were performed as follows. Cultures were washed twice with warm Krebs-Ringer buffer (KRB, 16 mM sodium phosphate, 119 mM NaCl, 4.7 mM KCl, 1.8 mM CaCl2, 1.2 mM MgSO4, 1.3 mM EDTA, and 5.6 mM glucose; pH7.4) and then incubated for about 20 minutes at about 37° C. with 1 μM [^3H]-DA in KRB in order to allow for the uptake of DA. Afterwards, the cultures were washed (three times) with ice-cold KRB and the cells were collected in 1 N NaOH. Radioactivity was determined by liquid scintillation counting.
This example tests whether or not post-treatment with DM is still neuroprotective in LPS-induced neurotoxicity. Neuron-glia co-cultures as prepared in Example 1 were first treated with LPS (20 ng/ml) for twelve hours, and then LPS was removed by removing the media from the cultures and washing twice with PBS. Different concentrations of DM (10^−5, 10^−10, and 10^−14 M) were then added to the cultures and incubation was continued for another 6 or 7 days. The DA uptake and the superoxide production were measured as in Example 1 and 5.
Neuron-glia cell cultures were prepared as in Example 1, and pretreated with the various peptide fragments of Table 1 (peptide fragments were obtained from BACHEM) for 30 minutes followed by addition of 5 ng/ml of LPS. DA neurotoxicity was measured as an Example 1 at 7 days post treatment.
DA neurotoxicity was measured at 7 days post treatment as in Example 1. Dopaminergic neuronal death was determined at 7 days post treatment using immunocytochemical staining as in Example 2.
Neuron-glia cultures were prepared from the ventral mesencephalic tissues of embryonic day 13-14 rats. Dissociated cells were seeded at 1×10^5/well and 5×10^5/well to poly-D-lysine-coated 96-well and 24-well plates, respectively.

Compound	neurotrophic effect (DA uptake) in neuron-glia culture [1]	increase in DA uptake [2]	DA uptake, LPS + Peptide 10^−13 [3]	DA uptake, LPS + Peptide 10^−14 [3]	DA uptake, LPS + Peptide 10^−15 [3]
CCCC(=O)[O-].[Na+] [sodium butyrate, Sodium Butyrate]	pronounced neurotrophic effect	less than 2 fold	–	–	–
DynA 2-17: peptide fragment of Dynorphin A (YGGFLRRIRPKLKWDNQ), residues 2-17	–	–	44.3 ± 8.2% of the control cultures	62.7 ± 8.0% of the control cultures	50.2 ± 6.9% of the control cultures
Tyr-Gly-Gly-Phe-Leu-Arg-Arg-Ile-Arg-Pro-Lys-Leu-Lys-Trp-Asp-Asn-Gln (YGGFLRRIRPKLKWDNQ; listed as Homo sapiens) [DynA 1-17]	–	–	52.1 ± 6.2% of the control cultures	58.0 ± 6.5% of the control cultures	51.0 ± 9.4% of the control cultures
